Test results as given in ChEMBL document CHEMBL5678818, “Discovery of potent SOS1 inhibitors that block RAS activation via disruption of the RAS-SOS1 interaction” (Proc Natl Acad Sci U S A, 2019).

Tests used:
[1] = target: Calcium/calmodulin-dependent protein kinase type II subunit gamma (Homo sapiens) (UniProt Q13555); experiment: Inhibition of CAMK2G (unknown origin) assessed as residual activity at 1000 nM by KINOMEscan analysis relative to control
[2] = target: T1, Serine/threonine-protein kinase DCLK3 (Homo sapiens) (UniProt Q9C098); experiment: Inhibition of DCAMKL3 (unknown origin) assessed as residual activity at 1000 nM by KINOMEscan analysis relative to control
T1 sequence (whole entry): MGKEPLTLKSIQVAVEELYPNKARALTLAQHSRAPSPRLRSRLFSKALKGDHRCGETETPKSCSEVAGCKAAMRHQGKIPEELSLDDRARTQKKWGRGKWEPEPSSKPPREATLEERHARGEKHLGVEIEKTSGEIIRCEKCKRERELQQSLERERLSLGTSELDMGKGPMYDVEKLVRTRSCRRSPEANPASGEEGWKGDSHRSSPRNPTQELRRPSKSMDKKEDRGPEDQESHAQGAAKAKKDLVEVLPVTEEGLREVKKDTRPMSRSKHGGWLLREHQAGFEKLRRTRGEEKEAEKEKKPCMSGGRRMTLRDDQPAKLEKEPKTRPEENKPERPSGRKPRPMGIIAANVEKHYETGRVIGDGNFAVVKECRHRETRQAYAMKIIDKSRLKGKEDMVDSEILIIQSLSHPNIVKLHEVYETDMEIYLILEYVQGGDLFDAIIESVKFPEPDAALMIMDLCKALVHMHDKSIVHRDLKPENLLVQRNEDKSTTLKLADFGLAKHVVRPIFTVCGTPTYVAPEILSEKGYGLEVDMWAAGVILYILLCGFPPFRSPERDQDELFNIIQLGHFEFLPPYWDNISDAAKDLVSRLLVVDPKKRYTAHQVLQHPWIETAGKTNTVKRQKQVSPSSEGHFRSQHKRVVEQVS

[3] = target: T2, Serine/threonine-protein kinase Nek10 (Homo sapiens) (UniProt Q6ZWH5); experiment: Inhibition of NEK10 (unknown origin) assessed as residual activity at 1000 nM by KINOMEscan analysis relative to control
T2 sequence (whole entry): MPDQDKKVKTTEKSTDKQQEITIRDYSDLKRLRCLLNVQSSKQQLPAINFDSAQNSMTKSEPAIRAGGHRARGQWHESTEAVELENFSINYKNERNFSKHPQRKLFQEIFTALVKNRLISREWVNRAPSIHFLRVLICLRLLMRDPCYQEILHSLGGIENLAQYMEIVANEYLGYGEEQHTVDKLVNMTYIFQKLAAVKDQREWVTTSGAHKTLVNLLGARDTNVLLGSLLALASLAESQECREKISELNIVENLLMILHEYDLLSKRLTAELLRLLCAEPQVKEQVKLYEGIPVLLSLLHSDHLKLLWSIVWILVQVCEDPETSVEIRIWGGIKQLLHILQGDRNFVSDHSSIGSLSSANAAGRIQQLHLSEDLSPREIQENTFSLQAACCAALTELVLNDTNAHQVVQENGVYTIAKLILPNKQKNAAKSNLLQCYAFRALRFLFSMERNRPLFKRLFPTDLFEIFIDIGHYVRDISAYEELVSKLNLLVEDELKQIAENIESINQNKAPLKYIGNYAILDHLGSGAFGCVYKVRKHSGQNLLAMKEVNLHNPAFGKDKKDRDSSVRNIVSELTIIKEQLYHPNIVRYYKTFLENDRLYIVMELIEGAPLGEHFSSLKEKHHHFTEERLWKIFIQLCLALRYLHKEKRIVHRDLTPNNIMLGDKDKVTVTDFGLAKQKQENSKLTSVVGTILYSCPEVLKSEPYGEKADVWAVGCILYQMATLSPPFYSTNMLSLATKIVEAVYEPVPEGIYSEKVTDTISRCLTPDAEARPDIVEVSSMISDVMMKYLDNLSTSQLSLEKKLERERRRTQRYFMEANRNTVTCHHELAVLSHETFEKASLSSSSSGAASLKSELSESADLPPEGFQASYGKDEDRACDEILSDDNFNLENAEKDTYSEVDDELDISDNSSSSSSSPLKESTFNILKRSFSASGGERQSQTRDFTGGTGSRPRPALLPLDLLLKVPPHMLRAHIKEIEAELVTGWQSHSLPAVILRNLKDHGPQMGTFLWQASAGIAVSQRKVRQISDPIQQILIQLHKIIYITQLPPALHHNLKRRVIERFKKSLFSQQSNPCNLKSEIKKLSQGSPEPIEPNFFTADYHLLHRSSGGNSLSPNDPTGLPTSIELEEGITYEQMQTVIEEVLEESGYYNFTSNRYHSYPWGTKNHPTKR

[4] = target: T3, Serine/threonine-protein kinase haspin (Homo sapiens) (UniProt Q8TF76); experiment: Inhibition of HASPIN (unknown origin) assessed as residual activity at 1000 nM by KINOMEscan analysis relative to control
T3 sequence (whole entry): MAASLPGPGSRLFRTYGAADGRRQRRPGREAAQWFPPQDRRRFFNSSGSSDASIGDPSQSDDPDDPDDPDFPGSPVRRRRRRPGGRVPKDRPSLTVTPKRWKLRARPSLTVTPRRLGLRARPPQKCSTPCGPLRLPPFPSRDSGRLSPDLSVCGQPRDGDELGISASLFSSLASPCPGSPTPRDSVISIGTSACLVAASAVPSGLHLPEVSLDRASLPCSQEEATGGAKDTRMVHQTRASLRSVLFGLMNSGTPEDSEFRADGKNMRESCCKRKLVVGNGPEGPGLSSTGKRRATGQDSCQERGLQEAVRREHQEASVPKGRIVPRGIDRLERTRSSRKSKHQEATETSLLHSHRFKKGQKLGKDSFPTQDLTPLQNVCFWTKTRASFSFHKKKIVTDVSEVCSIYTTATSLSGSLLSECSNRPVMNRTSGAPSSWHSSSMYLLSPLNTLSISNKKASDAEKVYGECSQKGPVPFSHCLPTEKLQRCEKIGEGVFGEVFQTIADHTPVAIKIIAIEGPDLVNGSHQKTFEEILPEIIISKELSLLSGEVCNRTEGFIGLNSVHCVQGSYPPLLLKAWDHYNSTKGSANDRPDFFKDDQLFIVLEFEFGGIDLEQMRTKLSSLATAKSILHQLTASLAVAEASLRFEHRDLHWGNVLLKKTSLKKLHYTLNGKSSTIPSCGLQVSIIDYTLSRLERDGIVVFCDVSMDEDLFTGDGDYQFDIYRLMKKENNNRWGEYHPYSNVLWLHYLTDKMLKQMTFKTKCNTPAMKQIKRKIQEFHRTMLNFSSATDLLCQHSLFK

[5] = target: Calcium/calmodulin-dependent protein kinase type 1 (Homo sapiens) (UniProt Q14012); experiment: Inhibition of CAMK1 (unknown origin) assessed as residual activity at 1000 nM by KINOMEscan analysis relative to control
[6] = target: Serine/threonine-protein kinase 35 (Homo sapiens) (UniProt Q8TDR2); experiment: Inhibition of STK35 (unknown origin) assessed as residual activity at 1000 nM by KINOMEscan analysis relative to control
Serine/threonine-protein kinase 35 (Homo sapiens), sequence (Q8TDR2 whole entry): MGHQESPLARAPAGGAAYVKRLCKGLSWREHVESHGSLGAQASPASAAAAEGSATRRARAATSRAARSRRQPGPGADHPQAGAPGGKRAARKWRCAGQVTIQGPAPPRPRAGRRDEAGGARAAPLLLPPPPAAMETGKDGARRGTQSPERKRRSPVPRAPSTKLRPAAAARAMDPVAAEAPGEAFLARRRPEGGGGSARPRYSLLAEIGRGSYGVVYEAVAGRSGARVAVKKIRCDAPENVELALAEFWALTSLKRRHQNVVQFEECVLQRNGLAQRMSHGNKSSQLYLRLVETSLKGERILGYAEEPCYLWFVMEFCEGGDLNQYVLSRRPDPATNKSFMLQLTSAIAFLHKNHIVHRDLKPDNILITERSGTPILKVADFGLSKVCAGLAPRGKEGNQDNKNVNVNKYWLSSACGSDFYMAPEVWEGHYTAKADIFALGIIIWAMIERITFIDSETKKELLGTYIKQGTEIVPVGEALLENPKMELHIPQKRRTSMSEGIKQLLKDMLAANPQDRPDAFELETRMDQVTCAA

Calcium/calmodulin-dependent protein kinase type 1 (Homo sapiens), sequence (Q14012 whole entry, looked up): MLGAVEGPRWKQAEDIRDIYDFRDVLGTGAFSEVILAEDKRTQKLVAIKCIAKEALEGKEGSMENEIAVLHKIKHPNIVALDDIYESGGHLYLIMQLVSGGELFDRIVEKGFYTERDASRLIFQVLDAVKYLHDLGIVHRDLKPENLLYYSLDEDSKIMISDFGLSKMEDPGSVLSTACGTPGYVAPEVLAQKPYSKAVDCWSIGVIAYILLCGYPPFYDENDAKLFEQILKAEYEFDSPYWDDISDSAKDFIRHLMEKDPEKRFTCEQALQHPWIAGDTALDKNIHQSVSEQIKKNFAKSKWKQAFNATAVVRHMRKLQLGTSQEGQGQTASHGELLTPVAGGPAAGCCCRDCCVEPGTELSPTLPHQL
Calcium/calmodulin-dependent protein kinase type II subunit gamma (Homo sapiens), sequence (Q13555 whole entry): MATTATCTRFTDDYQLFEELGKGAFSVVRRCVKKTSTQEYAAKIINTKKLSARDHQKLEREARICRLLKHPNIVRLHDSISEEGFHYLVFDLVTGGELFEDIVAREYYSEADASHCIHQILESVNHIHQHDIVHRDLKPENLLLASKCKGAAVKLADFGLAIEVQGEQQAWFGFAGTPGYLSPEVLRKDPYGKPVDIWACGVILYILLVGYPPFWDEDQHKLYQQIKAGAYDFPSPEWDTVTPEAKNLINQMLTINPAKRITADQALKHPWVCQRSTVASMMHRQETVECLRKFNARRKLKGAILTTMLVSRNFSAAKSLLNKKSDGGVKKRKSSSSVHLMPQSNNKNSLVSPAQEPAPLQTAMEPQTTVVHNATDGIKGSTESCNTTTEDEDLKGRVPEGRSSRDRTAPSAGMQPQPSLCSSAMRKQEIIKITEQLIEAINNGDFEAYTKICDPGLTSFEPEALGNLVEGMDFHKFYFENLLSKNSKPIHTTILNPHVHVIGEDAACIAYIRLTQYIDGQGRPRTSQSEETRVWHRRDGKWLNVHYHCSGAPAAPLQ

SMILES | Activity [1] | Activity [2] | Activity [3] | Activity [4] | Activity [5] | Activity [6]
COc1cc2nc(C)nc(N[C@H](C)c3cccc(-c4cn[nH]c4)c3)c2cc1OC | 83% | 73% | 90% | 81% | 73% | 92%
COc1cc2ncnc(N[C@H](C)c3cccc4ccccc34)c2cc1OC | 92% | 100% | 68% | 99% | 100% | 100%
